# Results from US10045980B2, “Inhibitor of p38 map kinase” (RESPIVERT LTD, priority 2014, dated 2018).
# pEC50, pIC50: −log10 of the molar value.
# Key:
# p38MAPKγ (MAPK12) = biological target: T1, p38MAPKγ (MAPK12) (Homo sapiens, UniProt P53778); assay: p38 MAPKγ enzyme inhibition (Z-LYTE FRET); assay type: biochemical
# T1 construct: purchased Life Technologies
# T1 sequence (P53778 1-367): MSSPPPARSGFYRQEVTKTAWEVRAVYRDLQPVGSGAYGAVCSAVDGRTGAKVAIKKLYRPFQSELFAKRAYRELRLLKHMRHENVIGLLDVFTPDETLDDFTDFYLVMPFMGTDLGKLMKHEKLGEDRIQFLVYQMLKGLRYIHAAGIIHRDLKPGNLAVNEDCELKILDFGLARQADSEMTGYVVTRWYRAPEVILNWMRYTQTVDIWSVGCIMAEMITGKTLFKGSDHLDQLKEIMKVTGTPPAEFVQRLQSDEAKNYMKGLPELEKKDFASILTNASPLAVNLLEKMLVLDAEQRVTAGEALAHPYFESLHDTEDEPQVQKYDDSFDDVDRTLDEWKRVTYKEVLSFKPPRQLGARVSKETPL
# Protocol: (§1) The enzyme inhibitory activities of the compound disclosed herein were determined by FRET using synthetic peptides labelled with both donor and acceptor fluorophores (Z-LYTE, Life Technologies, Paisley, UK).
# The enzyme (800 ng/mL, 2.5 μL) was incubated with the test compound (2.5 μL at either 40 μg/mL, 12 μg/mL, 4 μg/mL, 1.2 μg/mL, 0.4 μg/mL, 0.12 μg/mL, 0.04 μg/mL, 0.012 μg/mL, 0.004 μg/mL or 0.0012 μg/mL) for 2 h at RT. The FRET peptides (8 μM, 2.5 μL), and appropriate ATP solution (2.5 μL, 400 μM) were then added to the enzymes/compound mixtures and incubated for 1 h at RT. Development reagent (protease, 5 μL) was added for 1 h prior to detection in a fluorescence microplate reader (EnVision, Perkin Elmer).
# (§2) In all cases, the site-specific protease cleaves non-phosphorylated peptide only and eliminates the FRET signal. Phosphorylation levels of each reaction were calculated using the ratio of coumarin emission (donor) over fluorescein emission (acceptor), for which low ratios indicate high phosphorylation and high ratios indicate low phosphorylation levels.
# Syk = biological target: T2, Syk (Homo sapiens, UniProt P43405); assay: Syk enzyme inhibition (Z-LYTE FRET); assay type: biochemical
# T2 construct: purchased Life Technologies
# Protocol: as §1
# (§3) The relevant enzyme (1000 ng/mL, 1400 ng/mL or 2000 ng/mL respectively, 2.5 μL) was incubated with the test compound (either 40 μg/mL, 12 μg/mL, 4 μg/mL, 1.2 μg/mL, 0.4 μg/mL, 0.12 μg/mL, 0.04 μg/mL, 0.012 μg/mL, 0.004 μg/mL or 0.0012 μg/mL, 2.5 μL each) for 2 h at RT. The FRET peptides (8 μM, 2.5 μL), and appropriate ATP solutions (2.5 μL, 800 μM for c-Src, and 60 μM ATP for HCK and Syk) were then added to the enzyme/compound mixtures and incubated for 1 h at RT. Development reagent (protease, 5 μL) was added for 1 h prior to detection in a fluorescence microplate reader (EnVision, Perkin Elmer).
# as §2
# c-Src = biological target: T3, c-Src (Homo sapiens, UniProt P12931); assay: c-Src enzyme inhibition (Z-LYTE FRET); assay type: biochemical
# T3 construct: purchased Life Technologies
# T3 sequence (P12931 whole entry): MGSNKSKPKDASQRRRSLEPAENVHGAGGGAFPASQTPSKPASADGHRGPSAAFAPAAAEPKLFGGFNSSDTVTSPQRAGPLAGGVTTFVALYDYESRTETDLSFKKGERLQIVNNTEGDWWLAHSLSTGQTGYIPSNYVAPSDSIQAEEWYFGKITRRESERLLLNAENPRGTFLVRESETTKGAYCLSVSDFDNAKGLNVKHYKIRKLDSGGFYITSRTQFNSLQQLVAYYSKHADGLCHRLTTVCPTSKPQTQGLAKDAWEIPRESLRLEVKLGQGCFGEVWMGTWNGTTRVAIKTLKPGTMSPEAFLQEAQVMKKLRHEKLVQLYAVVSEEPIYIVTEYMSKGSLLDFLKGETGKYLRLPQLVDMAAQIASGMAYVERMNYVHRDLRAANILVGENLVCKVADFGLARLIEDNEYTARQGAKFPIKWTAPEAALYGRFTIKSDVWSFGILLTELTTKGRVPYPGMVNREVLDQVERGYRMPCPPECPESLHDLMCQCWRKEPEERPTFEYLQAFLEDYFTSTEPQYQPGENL
# Protocol: as §1, §3, §2
# d-U937 cells = assay: LPS-induced TNFα/IL-8 release in d-U937 cells; assay type: cell-based; details: Homo sapiens
# Protocol: U937 cells, a human monocytic cell line, were differentiated into macrophage-type cells by incubation with PMA (100-200 ng/mL) for 48 to 72 hr. Cells were pre-incubated with final concentrations of test compound for 2 h and were then stimulated with LPS (0.1 μg/mL; from E. Coli: 0111:64, Sigma) for 4 h. The supernatant was collected for determination of TNFα and IL-8 concentrations by sandwich ELISA (Duo-set, R&D systems). […] The relative 50% effective concentration (REC50) was determined from the resultant concentration-response curve. The inhibition of IL-8 production was calculated at each concentration of test compound by comparison with vehicle control.
# Hck = biological target: T4, Hck (Homo sapiens, UniProt P08631); assay: Hck enzyme inhibition (Z-LYTE FRET); assay type: biochemical
# T4 construct: purchased Life Technologies
# T4 sequence (P08631 22-526): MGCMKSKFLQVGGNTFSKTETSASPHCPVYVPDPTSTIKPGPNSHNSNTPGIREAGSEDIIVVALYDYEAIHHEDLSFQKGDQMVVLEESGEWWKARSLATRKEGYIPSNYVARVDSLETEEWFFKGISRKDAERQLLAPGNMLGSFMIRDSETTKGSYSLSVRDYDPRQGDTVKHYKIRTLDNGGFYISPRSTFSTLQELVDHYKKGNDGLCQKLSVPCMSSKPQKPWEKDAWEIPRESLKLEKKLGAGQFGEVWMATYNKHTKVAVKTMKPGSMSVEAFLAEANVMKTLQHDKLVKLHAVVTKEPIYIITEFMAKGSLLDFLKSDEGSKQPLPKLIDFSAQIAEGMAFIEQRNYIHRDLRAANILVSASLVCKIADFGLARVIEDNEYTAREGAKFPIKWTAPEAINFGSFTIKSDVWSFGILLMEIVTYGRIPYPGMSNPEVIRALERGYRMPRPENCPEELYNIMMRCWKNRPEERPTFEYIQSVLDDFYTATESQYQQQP
# Protocol: as §1, §3, §2
# [1] = biological target: T5, p38 MAPKα isoform (MAPK14) (Homo sapiens, UniProt Q16539); assay: p38 MAPKα enzyme inhibition (Z-LYTE FRET); assay type: biochemical
# T5 construct: purchased Life Technologies
# T5 sequence (Q16539 whole entry, canonical isoform): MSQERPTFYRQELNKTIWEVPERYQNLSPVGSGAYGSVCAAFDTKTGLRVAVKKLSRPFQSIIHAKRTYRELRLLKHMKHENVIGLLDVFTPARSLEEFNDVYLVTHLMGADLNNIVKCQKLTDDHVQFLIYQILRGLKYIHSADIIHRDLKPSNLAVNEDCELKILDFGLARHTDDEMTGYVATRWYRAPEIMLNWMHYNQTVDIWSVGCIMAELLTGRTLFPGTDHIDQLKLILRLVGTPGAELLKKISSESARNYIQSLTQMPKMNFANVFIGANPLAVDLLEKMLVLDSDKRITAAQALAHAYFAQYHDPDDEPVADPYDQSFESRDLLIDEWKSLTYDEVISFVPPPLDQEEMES
# Protocol: as §1
# The enzyme (40 ng/mL, 2.5 μL) was incubated with the test compound (2.5 μL of either 40 μg/mL, 12 μg/mL, 4 μg/mL, 1.2 μg/mL, 0.4 μg/mL, 0.12 μg/mL, 0.04 μg/mL, 0.012 μg/mL, 0.004 μg/mL or 0.0012 μg/mL) for 2 h at RT. […] Development reagent (protease, 5 μL) was added for 1 h prior to detection in a fluorescence microplate reader (EnVision, Perkin Elmer, Waltham, Mass., USA).
# as §2
smiles,measurement,setting,value
"CCc1cncc(Nc2cc(COc3ccc(NC(=O)Nc4cc(C(C)(C)C)nn4-c4ccc(C)cc4)c4ccccc34)ccn2)n1 [Compound of the invention, 1-(3-(tert-butyl)-1-(p-tolyl)-1H-pyrazol-5-yl)-3-(4-((2-((6-ethylpyrazin-2-yl)amino)pyridin-4-yl)methoxy)naphthalen-1-yl)urea]",pIC50,p38MAPKγ (MAPK12),6.82
same,pIC50,Syk,< 4.80
same,pIC50,c-Src,6.70
same,pEC50,"d-U937 cells; dU937, 4 h, read-out: LPS Induced Release TNFα REC50 (dU937)",8.26
same,pIC50,"d-U937 cells; dU937, d-U937 cells, LPS 0.1 μg/mL, 4 h",7.94
same,pIC50,Hck,7.26
same,pIC50,[1],7.59
